Laboratory results from US8569336B2, “Compounds for the treatment of inflammatory disorders” (priority 2008, dated 2013).
Like-named read-outs stand apart in the source and are kept apart here.

Columns and labels:
[1] = target: T1, purified catalytic domain of recombinant human TACE (rhTACEc) (Homo sapiens, UniProt P78536, N452Q/S266A); assay: TACE kinetic assay: cleavage of internally quenched peptide substrate TNF-FRET 2 (Ki); format: biochemical; conditions: TNF-FRET 2 substrate
T1 construct: 6xHis (C); made in house; host or cells: baculovirus/Hi5 insect cells

[2] = system: TNF-α production from human whole blood; assay: Inhibition of TNF-α production from human whole blood (hWBA), LPS stimulated, ELISA; format: cell-based; conditions: Homo sapiens, human whole blood diluted 1:1, LPS stimulated, TNF-α by ELISA, read-out: hWBA (IC50)

T1 sequence (P78536 215-477 S266A/N452Q): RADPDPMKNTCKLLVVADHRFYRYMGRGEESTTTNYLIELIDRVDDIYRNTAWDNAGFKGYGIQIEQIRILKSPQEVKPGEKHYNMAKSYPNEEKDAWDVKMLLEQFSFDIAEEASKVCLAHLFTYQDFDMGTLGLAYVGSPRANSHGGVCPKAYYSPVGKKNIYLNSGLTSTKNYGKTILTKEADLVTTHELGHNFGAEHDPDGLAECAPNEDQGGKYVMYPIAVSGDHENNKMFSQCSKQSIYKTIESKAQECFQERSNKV

Structure (SMILES)	Ki ([1]; read-out: Ki)	IC50 ([2]; 3.5 h, 3.5 h)	IC50 [2]	Ki ([1]; Ki)
COc1ccc2c(c1)C(=O)N(C[C@@]1(c3cc4cc(-c5c(C)nn(C)c5C)ccc4o3)NC(=O)NC1=O)C2 [Compound 2213]	0.403 nM	1510 nM	–	–
COc1ccc2c(c1)C(=O)N(C[C@@]1(c3cc4cc(C5CNC(=O)C5)ccc4o3)NC(=O)NC1=O)C2 (some centres unmarked) [Compound 2215]	–	381 nM	–	0.524 nM
COc1ccc2c(c1F)C(=O)N(C[C@@]1(c3cc4c(Cl)nccc4o3)NC(=O)NC1=O)C2 [Compound 2216]	0.41 nM	313 nM	–	–
COc1ccc2c(c1F)C(=O)N(C[C@@]1(c3cc4cnc(Cl)cc4o3)NC(=O)NC1=O)C2 [Compound 2217]	0.604 nM	859 nM	–	–
COc1ccc2c(c1F)C(=O)N(C[C@@]1(c3cc4nc(-c5cccnc5)ccc4o3)NC(=O)NC1=O)C2 [Compound 2218]	0.232 nM	1000 nM	–	–
COc1ccc2c(c1)C(=O)N(C[C@@]1(c3cc4cc(NC(N)=O)ccc4o3)NC(=O)NC1=O)C2 [Compound 2221]	0.099 nM	143 nM	–	–
COc1ccc2c(c1)C(=O)N(C[C@@]1(c3cc4cc(NS(C)(=O)=O)ccc4o3)NC(=O)NC1=O)C2 [Compound 2222]	0.701 nM	343 nM	–	–
COc1ccc2c(c1)C(=O)N(CC1(c3cc4cc(-c5cc(O)[nH]n5)ccc4o3)NC(=O)NC1=O)C2 (centres unmarked) [Compound 2223]	1.23 nM	242 nM	–	–
COc1ccc2c(c1)C(=O)N(CC1(c3cc4cc(-c5cc(=O)[nH]c(N)n5)ccc4o3)NC(=O)NC1=O)C2 (centres unmarked) [Compound 2224]	–	139 nM	–	0.313 nM
COc1ccc2c(c1)C(=O)N(C[C@@]1(c3cc4cc(N5C(=O)CNC5=O)ccc4o3)NC(=O)NC1=O)C2 [Compound 2225]	0.564 nM	677 nM	–	–
COc1ccc2c(c1)C(=O)N(C[C@@]1(c3cc4cc(N5CC(=O)NS5(=O)=O)ccc4o3)NC(=O)NC1=O)C2 [Compound 2230]	0.781 nM	4410 nM	–	–
COc1ccc2c(c1)C(=O)N(C[C@@]1(c3cc4c(-c5ccccc5F)nccc4o3)NC(=O)NC1=O)C2 [Compound 2237]	0.356 nM	1150 nM	–	–
COc1ccc2c(c1)C(=O)N(C[C@@]1(c3cc4cc(-c5cccc(O)c5)ncc4o3)NC(=O)NC1=O)C2 [Compound 2242]	0.566 nM	3390 nM	–	–
COc1ccc2c(c1)C(=O)N(C[C@@]1(c3cc4cc(-c5cncc(O)c5)ncc4o3)NC(=O)NC1=O)C2 [Compound 2244]	0.35 nM	365 nM	–	–
COc1ccc2c(c1)C(=O)N(C[C@@]1(c3cc4cc(-c5cc(N)n[nH]5)ccc4o3)NC(=O)NC1=O)C2 [Compound 2246]	0.523 nM	110 nM	–	–
COc1ccc2c(c1)C(=O)N(C[C@@]1(c3cc4c(NCc5ccccc5)ccnc4o3)NC(=O)NC1=O)C2 [Compound 2248]	–	233 nM	–	1.61 nM
COc1ccc2c(c1)C(=O)N(C[C@@]1(c3cc4cnc(-c5c(C)nn(C)c5C)cc4o3)NC(=O)NC1=O)C2 [Compound 2251]	0.746 nM	2490 nM	–	–
COc1ccc2c(c1)C(=O)N(C[C@@]1(c3cc4cnc(N5CCCC5=O)cc4o3)NC(=O)NC1=O)C2 [Compound 2253]	0.972 nM	2670 nM	–	–

Structure (SMILES)	Ki ([1]; read-out: Ki)	IC50 ([2]; 3.5 h, 3.5 h)	IC50 [2]	Ki ([1]; Ki)
COc1ccc2c(c1)C(=O)N(C[C@@]1(c3cc4c(O)nccc4o3)NC(=O)NC1=O)C2 [Compound 2256]	0.231 nM	252 nM	–	–
COc1ccc2c(c1)C(=O)N(C[C@@]1(c3cc4c[n+]([O-])ccc4o3)NC(=O)NC1=O)C2 [Compound 2259]	1.08 nM	509 nM	–	–
COc1ccc2c(c1)C(=O)N(C[C@@]1(c3cc4cc(-c5c(N)noc5C)ccc4o3)NC(=O)NC1=O)C2 [Compound 2261]	0.347 nM	515 nM	–	–
COc1ccc2c(c1)C(=O)N(C[C@@]1(c3cc4c(o3)CCNC4)NC(=O)NC1=O)C2 [Compound 2262]	6.54 nM	≥ 1000 nM	–	–
COc1ccc2c(c1)C(=O)N(C[C@@]1(c3cc4c(s3)CCN(C)C4)NC(=O)NC1=O)C2 [Compound 2265]	8.77 nM	1440 nM	–	–
COc1ccc2c(c1)C(=O)N(C[C@@]1(c3cc4c(o3)CNCC4)NC(=O)NC1=O)C2 [Compound 2266]	7.83 nM	860 nM	–	–
COc1ccc2c(c1)C(=O)N(C[C@@]1(c3cc4c(o3)CCN(CC(N)=O)C4)NC(=O)NC1=O)C2 [Compound 2268]	–	252 nM	–	0.702 nM
COc1ccc2c(c1)C(=O)N(C[C@@]1(c3cc4c(C(F)(F)F)nccc4o3)NC(=O)NC1=O)C2 [Compound 2270]	0.441 nM	1070 nM	–	–
COc1ccc2c(c1)C(=O)N(C[C@@]1(c3cc4cnc(C5=NCCN5)cc4o3)NC(=O)NC1=O)C2 [Compound 2273]	0.124 nM	747 nM	–	–
COc1ccc2c(c1)C(=O)N(C[C@@]1(c3cc4cc(-c5cc(O)n[nH]5)cnc4o3)NC(=O)NC1=O)C2 [Compound 2275]	1.08 nM	491 nM	–	–
COc1ccc2c(c1)C(=O)N(C[C@@]1(c3cc4cc(-c5cc(O)nn5C)cnc4o3)NC(=O)NC1=O)C2 [Compound 2276]	0.562 nM	222 nM	–	–
COc1ccc2c(c1)C(=O)N(C[C@@]1(c3cc4c(N5CCNCC5)nccc4o3)NC(=O)NC1=O)C2 [Compound 2279]	–	234 nM	–	2.55 nM
COc1ccc2c(c1)C(=O)N(C[C@@]1(c3cc4c(N5CCNC(=O)C5)nccc4o3)NC(=O)NC1=O)C2 [Compound 2280]	1.1 nM	–	340 nM	–
COc1ccc2c(c1)C(=O)N(C[C@@]1(c3cc4cnc(N)cc4o3)NC(=O)NC1=O)C2 [Compound 2282]	0.422 nM	–	268 nM	–
COc1ccc2c(c1)C(=O)N(C[C@@]1(c3cc4c(-c5cn[nH]c5)nccc4o3)NC(=O)NC1=O)C2 [Compound 2283]	0.185 nM	–	154 nM	–
COc1ccc2c(c1)C(=O)N(C[C@@]1(c3cc4c(Cl)nc(N)nc4o3)NC(=O)NC1=O)C2 [Compound 2296]	–	–	≥ 10000 nM	4.59 nM
COc1ccc2c(c1)C(=O)N(C[C@@]1(c3cc4c(C)nc(N)nc4o3)NC(=O)NC1=O)C2 [Compound 2299]	–	–	284 nM	0.762 nM
COc1ccc2c(c1)C(=O)N(C[C@@]1(c3cc4cc(C(N)=O)ccc4o3)NC(=O)NC1=O)C2 [Compound 2407]	–	–	162 nM	0.12 nM

The next lines start with results.

Ki ([1]; read-out: Ki)	IC50 ([2]; 3.5 h, 3.5 h)	IC50 [2]	Structure (SMILES)	Ki ([1]; Ki)
0.429 nM	–	575 nM	COc1ccc2c(c1)C(=O)N(C[C@@]1(c3cc4cnc(C5CC5)cc4o3)NC(=O)NC1=O)C2 [Compound 2287]	–
0.721 nM	–	696 nM	COc1ccc2c(c1)C(=O)N(C[C@@]1(c3cc4cnc(-c5c(C)noc5C)cc4o3)NC(=O)NC1=O)C2 [Compound 2288]	–
0.578 nM	–	3420 nM	CNc1cc2oc([C@]3(CN4Cc5ccc(OC)cc5C4=O)NC(=O)NC3=O)cc2cn1 [Compound 2291]	–
1.32 nM	–	485 nM	COc1ccc2c(c1)C(=O)N(C[C@@]1(c3cc4c(N5CCNC5=O)nccc4o3)NC(=O)NC1=O)C2 [Compound 2292]	–
0.822 nM	–	≥ 1000 nM	COc1ccc2c(c1)C(=O)N(C[C@@]1(c3cc4cnc(NC5CC5)nc4o3)NC(=O)NC1=O)C2 [Compound 2297]	–
1.69 nM	–	≥ 1000 nM	COc1ccc2c(c1)C(=O)N(C[C@@]1(c3cc4cnc(NC(C)C)nc4o3)NC(=O)NC1=O)C2 [Compound 2298]	–
0.36 nM	–	532 nM	COc1ccc2c(c1)C(=O)N(C[C@@]1(c3cc4cnc(Cl)nc4o3)NC(=O)NC1=O)C2 [Compound 2301]	–
0.437 nM	–	470 nM	COc1ccc2c(c1)C(=O)N(C[C@@]1(c3cc4cc(C)ncc4o3)NC(=O)NC1=O)C2 [Compound 2302]	–
0.312 nM	–	630 nM	COc1ccc2c(c1)C(=O)N(C[C@@]1(c3cc4cncc(Br)c4o3)NC(=O)NC1=O)C2 [Compound 2303]	–
0.568 nM	–	1420 nM	COc1ccc2c(c1)C(=O)N(C[C@@]1(c3cc4c(C(F)(F)F)nc(N)nc4o3)NC(=O)NC1=O)C2 [Compound 2305]	–
0.57 nM	–	834 nM	COc1ccc2c(c1Cl)C(=O)N(C[C@@]1(c3cc4cnccc4o3)NC(=O)NC1=O)C2 [Compound 2306]	–
0.328 nM	–	2110 nM	COc1ccc2c(c1)C(=O)N(C[C@@]1(c3cc4cnc(OC)cc4o3)NC(=O)NC1=O)C2 [Compound 2308]	–
1.72 nM	–	942 nM	COc1cc2c(cc1F)CN(C[C@@]1(c3cc4cnccc4o3)NC(=O)NC1=O)C2=O [Compound 2311]	–
1.06 nM	–	218 nM	COc1ccc2c(c1)C(=O)N(C[C@@]1(c3cc4cnc(O)cc4o3)NC(=O)NC1=O)C2 [Compound 2312]	–
0.375 nM	–	542 nM	COc1ccc2c(c1)C(=O)N(C[C@@]1(c3cc4[nH]c(=O)ccc4o3)NC(=O)NC1=O)C2 [Compound 2317]	–
0.586 nM	–	609 nM	COc1ccc2c(c1)C(=O)N(C[C@@]1(c3cc4ncc(CO)cc4o3)NC(=O)NC1=O)C2 [Compound 2320]	–
0.5 nM	–	256 nM	COc1ccc2c(c1)C(=O)N(C[C@@]1(c3cc4cc(C(=O)NO)ccc4o3)NC(=O)NC1=O)C2 [Compound 2402]	–
1.3 nM	–	1970 nM	COc1ccc2c(c1)C(=O)N(C[C@@]1(c3ccc(C(N)=O)cc3)NC(=O)NC1=O)C2 [Compound 2403]	–
3.15 nM	–	1710 nM	COc1ccc2c(c1)C(=O)N(C[C@@]1(c3ccc(C(=O)O)cc3)NC(=O)NC1=O)C2 [Compound 2404]	–
2.91 nM	–	2710 nM	COc1ccc2c(c1)C(=O)N(C[C@@]1(c3ccc(C(=O)N4CCOCC4)cc3)NC(=O)NC1=O)C2 [Compound 2405]	–
5.38 nM	–	7110 nM	COc1ccc2c(c1)C(=O)N(C[C@@]1(c3ccc(C(=O)NS(C)(=O)=O)cc3)NC(=O)NC1=O)C2 [Compound 2406]	–
0.49 nM	–	132 nM	COc1ccc2c(c1)C(=O)N(C[C@@]1(c3cc4ccc(C(N)=O)cc4o3)NC(=O)NC1=O)C2 [Compound 2408]	–
